The values that follow come from PMC5372594 (International Journal of Molecular Sciences, 2017).

Peptide text beside a SMILES is read from it.

The subject of data set [1] is trypsin. Description: trypsin. The conditions noted are these: up to 60 min.
The target in data set [2] is T1, GLP-1R (Homo sapiens, UniProt P43220).
T1 construct: expressed in transfected cells
Kind of data set: CRE-luciferase reporter-gene assay, CHO cells stably expressing human GLP-1 receptor. In kind it is cell-based. The conditions noted are these: 4-h culture with peptide, 10-step 5-fold dilution from 250 nmol/L, mean ± SEM, n = 3.
Method: A cyclic adenosine monophosphate response element (CRE)-luciferase based reporter-gene assays, as a surrogate for cyclic adenosine monophosphate (cAMP) formation, were used to measure the abilities of the analogs to activate GLP-1R.
Cells were grown at 37 °C with 5% CO2 in Dulbecco’s modified Eagle’s medium-F12 supplemented with 10% fetal bovine serum (FBS), 4.5 g/L glucose, 100 units/ml penicillin, 100 mg/mL streptomycin, 0.6 mg/mL hygromycin B and 1 mg/mL G418. […] Each well contained 20,000 cells. The initial concentration of each analog and positive control was 250 nmol/L, which was diluted 5 times to produce a 10-step gradient, and each well contained 20 μL. After 4-h culture, 100 μL of a chemical light-emitting substrate was added to each well. Fluorescence was measured with an EnVision 2104 Multilabel Reader (PerkinElmer, Houston, TX, USA) after a 40-min oscillation at 25 °C.

Data set [3] addresses T1, GLP-1R. Description: CHO cell cAMP accumulation assay (ELISA). Type of data set: cell-based. The note with it: 30 min incubation, 0.5 mM IBMX, 3-parameter non-linear regression, n = 3.
Method: CHO cells were stably transfected with GLP-1R and grown in conditions described above. […] After 4-h culture, cells were treated with compounds diluted in assay buffer to concentrations within the 10^−4–10^4 nM range and incubated for 30 min. Cells were lysed by freezing and thawing three times. The samples were then assayed according to the cAMP ELISA assay kit protocol (Jiancheng, Nanjing, China).
The next data set is described as follows: in vivo. The conditions noted are these: male, C57BL/6J, mouse.
The conditions of data set [4]: mouse, in vivo.
Method: (§1) Retro orbital blood collections were performed on mice at different time points (0, 1, 2, 3, 4, 6, 8, 10 and 12 h).
The subject of data set [5] is trypsin. Kind of data set: Trypsin resistance measured by HPLC (residue rate). Type of data set: in vitro ADME. An excerpt:
The substrate was hydrolyzed with trypsin, and the peak area of the sample, which added the stop-buffer at the start point, was set to 100%.

T1 sequence (P43220 24-463): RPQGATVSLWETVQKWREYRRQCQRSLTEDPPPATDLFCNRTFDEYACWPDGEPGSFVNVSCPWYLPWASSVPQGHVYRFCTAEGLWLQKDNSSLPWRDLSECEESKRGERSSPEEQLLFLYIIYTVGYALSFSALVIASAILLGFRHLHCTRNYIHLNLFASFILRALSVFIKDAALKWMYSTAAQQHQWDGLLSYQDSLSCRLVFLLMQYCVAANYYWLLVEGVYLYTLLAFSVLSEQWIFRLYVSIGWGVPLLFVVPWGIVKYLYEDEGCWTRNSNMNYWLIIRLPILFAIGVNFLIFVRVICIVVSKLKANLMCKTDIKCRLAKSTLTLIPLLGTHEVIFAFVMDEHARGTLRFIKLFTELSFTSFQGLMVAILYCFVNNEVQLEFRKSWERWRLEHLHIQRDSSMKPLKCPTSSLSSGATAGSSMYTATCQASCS
Method for in vivo: as §1

The compound “HGEGTFTSDLSMQMEEEAVLLFIEWLMNGGPSSGAPPPSC” yielded a not cleaved in the data set on trypsin [1] of 100% at 60 min.

For the compound `CC[C@H](C)[C@H](NC(=O)[C@H](CC(C)C)NC(=O)[C@H](Cc1c[nH]c2ccccc12)NC(=O)[C@H](CCC(=O)O)NC(=O)[C@@H](NC(=O)[C@H](Cc1ccccc1)NC(=O)[C@H](CC(C)C)NC(=O)[C@H](Cc1ccc(O)cc1)NC(=O)[C@@H](NC(=O)[C@H](C)NC(=O)[C@H](CCC(=O)O)NC(=O)[C@H](CCC(=O)O)NC(=O)[C@H](CCC(=O)O)NC(=O)[C@H](CCSC)NC(=O)[C@H](CCC(N)=O)NC(=O)[C@@H](NC(=O)[C@H](CO)NC(=O)[C@H](CC(C)C)NC(=O)[C@H](CC(=O)O)NC(=O)[C@H](CO)NC(=O)[C@@H](NC(=O)[C@H](Cc1ccccc1)NC(=O)[C@@H](NC(=O)CNC(=O)[C@H](CCC(=O)O)NC(=O)CNC(=O)[C@@H](N)Cc1c[nH]cn1)[C@@H](C)O)[C@@H](C)O)[C@@H](C)CC)C(C)C)[C@@H](C)CC)C(=O)N[C@@H](CC(N)=O)C(=O)NCC(=O)NCC(=O)N1CCC[C@H]1C(=O)N[C@@H](CO)C(=O)N[C@@H](CO)C(=O)NCC(=O)N[C@@H](C)C(=O)N1CCC[C@H]1C(=O)N1CCC[C@H]1C(=O)N1CCC[C@H]1C(=O)N[C@@H](CO)C(=O)N[C@@H](CS)C(=O)O` [TSME-5] (H-HGEGTFTSDLSIQMEEEAVYLFIEWLINGGPSSGAPPPSC-OH), the EC50 at GLP-1R [2] was determined as 8.83 nM.

In the case of `CC[C@H](C)[C@H](NC(=O)[C@H](Cc1ccccc1)NC(=O)[C@H](CC(C)C)NC(=O)[C@@H](NC(=O)[C@@H](NC(=O)[C@H](C)NC(=O)[C@H](CCC(=O)O)NC(=O)[C@H](CCC(=O)O)NC(=O)[C@H](CCC(=O)O)NC(=O)[C@H](CCSC)NC(=O)[C@H](CCC(N)=O)NC(=O)[C@@H](NC(=O)[C@H](CO)NC(=O)[C@H](CC(C)C)NC(=O)[C@H](CC(=O)O)NC(=O)[C@H](CO)NC(=O)[C@@H](NC(=O)[C@H](Cc1ccccc1)NC(=O)[C@@H](NC(=O)CNC(=O)[C@H](CCC(=O)O)NC(=O)CNC(=O)[C@@H](N)Cc1c[nH]cn1)[C@@H](C)O)[C@@H](C)O)C(C)C)C(C)C)C(C)C)C(=O)N[C@@H](CCC(=O)O)C(=O)N[C@@H](Cc1c[nH]c2ccccc12)C(=O)N[C@@H](CC(C)C)C(=O)N[C@H](C(=O)N[C@@H](CC(N)=O)C(=O)NCC(=O)NCC(=O)N1CCC[C@H]1C(=O)N[C@@H](CO)C(=O)N[C@@H](CO)C(=O)NCC(=O)N[C@@H](C)C(=O)N1CCC[C@H]1C(=O)N1CCC[C@H]1C(=O)N1CCC[C@H]1C(=O)N[C@@H](CO)C(=O)N[C@@H](CS)C(=O)O)C(C)C` [TSME-3] (H-HGEGTFTSDLSVQMEEEAVVLFIEWLVNGGPSSGAPPPSC-OH), the half-maximal effective concentration (EC50) at GLP-1R [2] was found to be 19.2 nM. Compared with the last compound, the EC50 is about 2.2-fold higher.

Consider `CC[C@H](C)[C@H](NC(=O)[C@H](Cc1ccccc1)NC(=O)[C@H](CC(C)C)NC(=O)[C@H](Cc1ccc(O)cc1)NC(=O)[C@@H](NC(=O)[C@H](C)NC(=O)[C@H](CCC(=O)O)NC(=O)[C@H](CCC(=O)O)NC(=O)[C@H](CCC(=O)O)NC(=O)[C@H](CCSC)NC(=O)[C@H](CCC(N)=O)NC(=O)[C@H](CCSC)NC(=O)[C@H](CO)NC(=O)[C@H](CC(C)C)NC(=O)[C@H](CC(=O)O)NC(=O)[C@H](CO)NC(=O)[C@@H](NC(=O)[C@H](Cc1ccccc1)NC(=O)[C@@H](NC(=O)CNC(=O)[C@H](CCC(=O)O)NC(=O)CNC(=O)[C@@H](N)Cc1c[nH]cn1)[C@@H](C)O)[C@@H](C)O)C(C)C)C(=O)N[C@@H](CCC(=O)O)C(=O)N[C@@H](Cc1c[nH]c2ccccc12)C(=O)N[C@@H](CC(C)C)C(=O)N[C@@H](CCSC)C(=O)N[C@@H](CC(N)=O)C(=O)NCC(=O)NCC(=O)N1CCC[C@H]1C(=O)N[C@@H](CO)C(=O)N[C@@H](CO)C(=O)NCC(=O)N[C@@H](C)C(=O)N1CCC[C@H]1C(=O)N1CCC[C@H]1C(=O)N1CCC[C@H]1C(=O)N[C@@H](CO)C(=O)N[C@@H](CS)C(=O)O` [TSME-4] (H-HGEGTFTSDLSMQMEEEAVYLFIEWLMNGGPSSGAPPPSC-OH), for which the EC50 on GLP-1R [2] turned out to be 31.2 nM.

`CC[C@H](C)[C@H](NC(=O)[C@H](Cc1ccccc1)NC(=O)[C@H](CC(C)C)NC(=O)[C@H](CC(C)C)NC(=O)[C@@H](NC(=O)[C@H](C)NC(=O)[C@H](CCC(=O)O)NC(=O)[C@H](CCC(=O)O)NC(=O)[C@H](CCC(=O)O)NC(=O)[C@H](CCSC)NC(=O)[C@H](CCC(N)=O)NC(=O)[C@H](CCSC)NC(=O)[C@H](CO)NC(=O)[C@H](CC(C)C)NC(=O)[C@H](CC(=O)O)NC(=O)[C@H](CO)NC(=O)[C@@H](NC(=O)[C@H](Cc1ccccc1)NC(=O)[C@@H](NC(=O)CNC(=O)[C@H](CCC(=O)O)NC(=O)CNC(=O)[C@@H](N)Cc1c[nH]cn1)[C@@H](C)O)[C@@H](C)O)C(C)C)C(=O)N[C@@H](CCC(=O)O)C(=O)N[C@@H](Cc1c[nH]c2ccccc12)C(=O)N[C@@H](CC(C)C)C(=O)N[C@@H](CCSC)C(=O)N[C@@H](CC(N)=O)C(=O)NCC(=O)NCC(=O)N1CCC[C@H]1C(=O)N[C@@H](CO)C(=O)N[C@@H](CO)C(=O)NCC(=O)N[C@@H](C)C(=O)N1CCC[C@H]1C(=O)N1CCC[C@H]1C(=O)N1CCC[C@H]1C(=O)N[C@@H](CO)C(=O)N[C@@H](CS)C(=O)O` [TSME-1] (H-HGEGTFTSDLSMQMEEEAVLLFIEWLMNGGPSSGAPPPSC-OH): the EC50 at GLP-1R [3] worked out at 1.1 nM; on GLP-1R [2], 0.38 nM. The values for the area under the curve AUC(0-t) in the data set “in vivo” (po) and in the data set “in vivo” (sc) were 0.56 ± 0.15 ng·h/mL and 3.17 ± 0.72 ng·h/mL, respectively. In “in vivo” (po, 2.12 mg/kg), this compound showed a Cmax of 0.2 ± 0.05 ng/mL. This compound gave a Relative bioavailability in data set [4] of 0.881%. Also, in data set [4] (po), the “Time to peak concentration” value is reported as “An hour”. In the data set on trypsin [5], the “Residue rate at 30 min” value is on record as 100% ± 0%. Further, in the data set on trypsin [5] (isolated enzyme trypsin), the share remaining at 1 h worked out at 100%.
